Holding throughout (format): in vivo
Experiment [1] deals with barnyardgrass (Echinochloa crus-galli L.). The experiment in a line: Test Example 15: pot, soil treatment, metobromuron + chlorpropham. Conditions: 750 g/ha, soil treatment, pot, 21st day after treatment, read-out: Growth inhibition rate of barnyardgrass (%) Measured value. An excerpt: (§1) When the herbicidal activity in a case where two active ingredients are combined, is larger than the simple sum of the respective herbicidal activities of the two active ingredients (the expected activity), it is called a synergistic effect. The activity expected by the combination of two active ingredients can be calculated as follows (Colby S. R., “Weed”, vol. 15, p. 20-22, 1967). E=α+β−(α×β[…]) where α: growth inhibition rate when treated with x (g/ha) of herbicide X, • β: growth inhibition rate when treated with y (g/ha) of herbicide Y, • E: growth inhibition rate expected when treated with x (g/ha) of herbicide X and y (g/ha) of herbicide Y.
(§2) On the 19th day after treatment, the state of growth of barnyardgrass was visually observed and evaluated in accordance with the following standards. The growth inhibition rate (%) [measured value] and the growth inhibition rate (%) [calculated value] calculated by the Colby's method, are shown in Table 2.
(§3) Growth inhibition rate (%)=inhibition rate) (%) of 0 (equivalent to the non-treated area) to 100 (complete kill)
(§4) Soil was put into a 1/300,000 ha pot, and seeds of barnyardgrass (Echinochloa crus-galli L.) were sown. […]
(§5) On the 21st day after treatment, the state of growth of barnyardgrass was visually observed and evaluated in the same manner as in Test Example 1.

Experiment [2] relates to annual bluegrass (Poa annua L.). Briefly: Test Example 19: pot, soil treatment, metobromuron + chlorpropham. Conditions: 250 g/ha, soil treatment, pot, 26th day after treatment, read-out: Growth inhibition rate of annual bluegrass (%) Measured value.
Experiment [3] has as its system giant foxtail (Setaria faberi Herrm.). The experiment in a line: Test Example 16: pot, soil treatment, metobromuron + chlorpropham. The following applies: soil treatment, pot, 21st day after treatment, read-out: Growth inhibition rate of giant foxtail (%) Measured value.
Text: as §1, §2, §3
(§6) Soil was put into a 1/300,000 ha pot, and seeds of barnyardgrass (Echinochloa crus-galli L.) were sown. On the day after seeding, predetermined amounts of SC containing metobromuron as active ingredient (same as in Test Example 1) and EC containing chlorpropham as active ingredient (same as in Test Example 1) were diluted with water corresponding to 1,000 L per hectare and applied for soil treatment.
as §5
The test was carried out in the same manner as in Test Example 15 except that barnyardgrass (Echinochloa crus-galli L.) was changed to giant foxtail (Setaria faberi Herrm.), to obtain the results as shown in Table 17.

In experiment [4] the test system is barnyardgrass (Echinochloa crus-galli L.). The experiment in a line: Test Example 18: pot, soil treatment, metobromuron + chlorpropham. Conditions: 500 g/ha, soil treatment, pot, 26th day after treatment, read-out: Growth inhibition rate of barnyardgrass (%) Measured value.
Text: as §1, §2, §3, §4
(§7) On the 26th day after treatment, the state of growth of barnyardgrass was visually observed and evaluated in the same manner as in Test Example 1.

The test system of experiment [5] is common lambsquarters (Chenopodium album L.). The experiment in a line: Test Example 20: pot, soil treatment, metobromuron + chlorpropham. The following applies: soil treatment, pot, 26th day after treatment, read-out: Growth inhibition rate of common lambsquarters (%) Measured value.
Text: as §1, §2, §3, §6, §7
The test was carried out in the same manner as in Test Example 18 except that barnyardgrass (Echinochloa crus-galli L.) was changed to common lambsquarters (Chenopodium album L.), to obtain the results as shown in Table 21.

The subject of experiment [6] is black nightshade (Solanum nigrum L.). Briefly: Test Example 17: pot, soil treatment, metobromuron + chlorpropham. Conditions: soil treatment, pot, 21st day after treatment, read-out: Growth inhibition rate of black nightshade (%) Measured value.
Text: as §1, §2, §3, §6, §5
The test was carried out in the same manner as in Test Example 15 except that barnyardgrass (Echinochloa crus-galli L.) was changed to black nightshade (Solanum nigrum L.), to obtain the results as shown in Table 18.

Experiment [7] concerns barnyardgrass (Echinochloa crus-galli L.). The experiment in a line: Test Example 32: pot, soil treatment, metobromuron + chlorpropham. Conditions: soil treatment, pot, 26th day after treatment, read-out: Growth inhibition rate of barnyardgrass (%) Measured value.
Text: as §1, §2, §3, §6, §7

The subject of experiment [8] is barnyardgrass (Echinochloa crus-qalli L.). The experiment in a line: Test Example 1: soybean field, soil treatment, metobromuron + chlorpropham. The following applies: 916 g/ha, soil treatment, soybean field, 19th day after treatment, read-out: Growth inhibition rate of barnyardgrass (%) Measured value. The source says: When the herbicidal activity in a case where two active ingredients are combined, is larger than the simple sum of the respective herbicidal activities of the two active ingredients (the expected activity), it is called a synergistic effect. The activity expected by the combination of two active ingredients can be calculated as follows (Colby S. R., “Weed”, vol. 15, p. 20-22, 1967). E=α+β−(α×β[…]) where α: growth inhibition rate when treated with x (g/ha) of herbicide X, • β: growth inhibition rate when treated with y (g/ha) of herbicide Y, • E: growth inhibition rate expected when treated with x (g/ha) of herbicide X and y (g/ha) of herbicide Y. […]
On the 19th day after treatment, the state of growth of barnyardgrass was visually observed and evaluated in accordance with the following standards. The growth inhibition rate (%) [measured value] and the growth inhibition rate (%) [calculated value] calculated by the Colby's method, are shown in Table 2. […]

For experiment [9], the system named is common purslane (Portulaca oleracea L.). Briefly: Test Example 12: corn field, soil treatment, metobromuron + nicosulfuron. Conditions: 30 g/ha, soil treatment, corn field, 30th day after treatment, read-out: Growth inhibition rate of common purslane (%) Measured value.
Text: as §1, §2
(§8) Growth inhibition rate (%)=inhibition rate) (%) of 0 (equivalent to the non-treated area) to 100 (complete kill) […]
On the 30th day after treatment, the state of growth of common purslane (Portulaca oleracea L.) which occurred naturally, was visually observed and evaluated in the same manner as in Test Example 1.

For experiment [10], the system named is large crabgrass (Diqitaria sanquinalis L.). Briefly: Test Example 11: corn field, foliar treatment, metobromuron + nicosulfuron. Conditions: Digitaria sanguinalis; 30 g/ha; foliar treatment at 1.5 to 2.0 leaf stage, corn field; 30th day after treatment; read-out: Growth inhibition rate of large crabgrass (%) Measured value.
Text: as §1, §2, §8
On the 30th day after treatment, the state of growth of large crabgrass was visually observed and evaluated in the same manner as in Test Example 1.

The next experiment has as its system polygonaceae weeds. The experiment in a line: Test Example 10: corn field, soil treatment, metobromuron + pendimethalin. Conditions: 600 g/ha; soil treatment, corn field; 49th day after treatment; read-out: Growth inhibition rate of Polygonaceae weeds (%) Measured value.
Text: as §1, §2, §8
On the 49th day after treatment, the state of growth of polygonaceae weeds which occurred naturally, was visually observed and evaluated in the same manner as in Test Example 1, The results are shown in Table 11.

Experiment [11] relates to large crabgrass (Digitaria sanquinalis L.). The experiment in a line: Test Example 28: pot, soil treatment, metobromuron + pendimethalin. Conditions: 62.5 g/ha, soil treatment, pot, 27th day after treatment, read-out: Growth inhibition rate of large crabgrass (%) Measured value.
Text: as §1, §2, §3
Soil was put into a 1/300,000 ha pot, and seeds of large crabgrass (Digitaria sanquinalis L.) were sown. On the day after seeding, predetermined amounts of SC containing metobromuron as active ingredient (same as in Test Example 1) and EC containing pendimethalin as active ingredient (same as in Test Example 10) were diluted with water corresponding to 1,000 L per hectare and applied for soil treatment.
On the 27th day after treatment, the state of growth of large crabgrass was visually observed and evaluated in the same manner as in Test Example 1.

For experiment [12], the system named is Nepalese Smartweed (Persicaria nepalensis (Meisn.) H. Gross). The experiment in a line: Test Example 3: soybean field, soil treatment, metobromuron + S-metolachlor. The following applies: 1000 g/ha, soil treatment, soybean field, 50th day after treatment, read-out: Growth inhibition rate of Nepalese Smartweed (%) Measured value.
Text: as §1, §2, §8
On the 50th day after treatment, the state of growth of Nepalese Smartweed (Persicaria nepalensis (Meisn.) H. Gross) which occurred naturally, was visually observed and evaluated in the same manner as in Test Example 1.

Experiment [13] has as its system common lambsquarters (Chenopodium album L.). The experiment in a line: Test Example 8: corn field, soil treatment, metobromuron + S-metolachlor. Conditions: 1000 g/ha, soil treatment, corn field, 28th day after treatment, read-out: Growth inhibition rate of common lambsquarters (%) Measured value.
Text: as §1, §2, §8
On the 28th day after treatment, the state of growth of common lambsquarters (Chenopodium album L.) which occurred naturally, was visually observed and evaluated in the same manner as in Test Example 1.

Experiment [14] deals with spotted knotweed (Polygonum lapathifolium L.). The experiment in a line: Test Example 2: soybean field, soil treatment, metobromuron + S-metolachlor. Conditions: Persicaria lapathifolia; 1000 g/ha; soil treatment, soybean field; 50th day after treatment; read-out: Growth inhibition rate of spotted knotweed (%) Measured value.
Text: as §1, §2, §8
On the 50th day after treatment, the state of growth of spotted knotweed was visually observed and evaluated in the same manner as in Test Example 1.

Experiment [15] deals with redroot pigweed (Amaranthus retroflexus L.). Briefly: Test Example 9: corn field, soil treatment, metobromuron + S-metolachlor. Conditions: 1000 g/ha, soil treatment, corn field, 49th day after treatment, read-out: Growth inhibition rate of redroot pigweed (%) Measured value.
Text: as §1, §2, §8
On the 49th day after treatment, the state of growth of redroot pigweed (Amaranthus retroflexus L.) which occurred naturally, was visually observed and evaluated in the same manner as in Test Example 1.

Experiment [16] relates to Nepalese Smartweed (Persicaria nepalensis (Meisn.) H. Gross). Briefly: Test Example 6: adzuki bean field, soil treatment, metobromuron + S-metolachlor. The following applies: 1000 g/ha, soil treatment, adzuki bean field, 39th day after treatment, read-out: Growth inhibition rate of Nepalese Smartweed (%) Measured value.
Text: as §1, §2, §3
In an adzuki bean agricultural field (9.6 square meters per one test section), predetermined amounts of SC containing metobromuron as active ingredient (same as in Test Example 1) and EC containing S-metolachlor as active ingredient (same as in Test Example 2) were diluted with water corresponding to 1,000 L per hectare and applied for soil treatment, prior to germination of adzuki bean and weeds.
On the 39th day after treatment, the state of growth of Nepalese Smartweed (Persicaria nepalensis (Meisn.) H. Gross) which occurred naturally, was visually observed and evaluated in the same manner as in Test Example 1.

For `CC(C)OC(=O)Nc1cccc(Cl)c1` [Chlorpropham, isopropyl 3-chlorocarbanilate], the inhibition at 750 g/ha in experiment [1], in [3] (750 g/ha) and in experiment [6] (750 g/ha) was 0% in each case. The inhibition at 250 g/ha in experiment [2] was found to be 10%; in experiment [5] (250 g/ha), 30%; in [7] (250 g/ha), 0%. In addition, the inhibition at 1000 g/ha is 0% in experiment [3] (1000 g/ha), 50% in experiment [5] (1000 g/ha) and 0% in [6] (1000 g/ha). Besides, the inhibition at 500 g/ha in experiment [4] and in [7] (500 g/ha) was 70% in each case. The inhibition at 125 g/ha in experiment [5] (125 g/ha) was determined as 20%; in experiment [7] (125 g/ha) it was 10%. Also, the inhibition at 916 g/ha in experiment [8] worked out at 8%.
`COc1cc(OC)nc(NC(=O)NS(=O)(=O)c2ncccc2C(=O)N(C)C)n1` [Nicosulfuron, 2-[(4,6-dimethoxypyrimidin-2-ylcarbamoyl)sulfamoyl]-N,N-dimethyl nicotinamide]: the inhibition at 30 g/ha in [9] was found to be 55%; in experiment [10], 10%.
As for `CCC(CC)Nc1c([N+](=O)[O-])cc(C)c(C)c1[N+](=O)[O-]` [Pendimethalin, N-(1-ethylpropyl)-2,6-dinitro-3,4-xylidine], the inhibition at 600 g/ha in the experiment with polygonaceae weeds was 73%. For the same molecule, the inhibition at 62.5 g/ha in experiment [11] is 70%.
Consider `CCc1cccc(C)c1N(C(=O)CCl)[C@@H](C)COC` [S-Metolachlor, 2-chloro-N-(6-ethyl-o-tolyl)-N-[(1S)-2-methoxy-1-methylethyl]acetamide], for which the inhibition at 1000 g/ha in [12] came out at 10%; in experiment [13], 69%; in experiment [14] it was 59%; in [15], 45%; in experiment [16], 75%.
